Reference: ChEMBL document CHEMBL1201861, “Genomics of Drug Sensitity in Cancer screening data, Wellcome Trust Sanger Institute”

Key:
Test in all cases: cells
COLO-824 = format: functional, cell-based, Homo sapiens; details: Homo sapiens, COLO-824
Description: SANGER: Inhibition of human COLO-824 cell growth in a cell viability assay.

CW-2 = format: functional, cell-based, Homo sapiens; details: Homo sapiens, CW-2;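 also: growth inhibition of CW-2 cells, read out by a cell viability assay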
Description: SANGER: Inhibition of human CW-2 cell growth in a cell viability assay.

D-247MG = format: functional, cell-based; details: Homo sapiens
Description: SANGER: Inhibition of human D-247MG cell growth in a cell viability assay.

DB = format: functional, cell-based, Homo sapiens; details: Homo sapiens, DB
Description: SANGER: Inhibition of human DB cell growth in a cell viability assay.

DEL = format: functional, cell-based, Homo sapiens; details: Homo sapiens, DEL;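 also: growth inhibition of the human DEL cell line, read out with a cell viability assay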
Description: SANGER: Inhibition of human DEL cell growth in a cell viability assay.

DMS-114 = format: functional, cell-based, Homo sapiens; details: Homo sapiens, DMS-114
DSH1 = format: functional, cell-based; details: Homo sapiens;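 also: growth inhibition of human DSH1 cells, measured with a cell viability readout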
Description: SANGER: Inhibition of human DSH1 cell growth in a cell viability assay.

ES3 = format: functional, cell-based, Homo sapiens; details: Homo sapiens, ES3;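 also: growth inhibition of ES3 cells, read out with a cell viability assay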
Description: SANGER: Inhibition of human ES3 cell growth in a cell viability assay.

ES8 = format: functional, cell-based, Homo sapiens; details: Homo sapiens, ES8;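 also: growth inhibition of human ES8 cells, read out with a cell viability assay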
Description: SANGER: Inhibition of human ES8 cell growth in a cell viability assay.

EOL1 = format: functional, cell-based, Homo sapiens; details: Homo sapiens, EOL1;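 also: growth inhibition of EoL-1 cells, read out by a cell viability assay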
Description: SANGER: Inhibition of human EoL-1-cell cell growth in a cell viability assay.

GB-1 = format: functional, cell-based, Homo sapiens; details: Homo sapiens, GB-1;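 also: growth of GB-1 cells judged by a viability assay, IC50 marks the concentration inhibiting growth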
Description: SANGER: Inhibition of human GB-1 cell growth in a cell viability assay.

GCIY = format: functional, cell-based, Homo sapiens; details: Homo sapiens, GCIY;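 also: growth inhibition of the human GCIY cell line, read out by a cell viability assay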
Description: SANGER: Inhibition of human GCIY cell growth in a cell viability assay.

GR-ST = format: functional, cell-based, Homo sapiens; details: Homo sapiens, GR-ST
Description: SANGER: Inhibition of human GR-ST cell growth in a cell viability assay.

GT3TKB = format: functional, cell-based, Homo sapiens; details: Homo sapiens, GT3TKB;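 also: growth inhibition of the cell line, read out with a cell viability assay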
Description: SANGER: Inhibition of human GT3TKB cell growth in a cell viability assay.

HAL-01 = format: functional, cell-based, Homo sapiens; details: Homo sapiens, HAL-01;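 also: growth inhibition of human HAL-01 cells, read out with a cell viability assay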
Description: SANGER: Inhibition of human HAL-01 cell growth in a cell viability assay.

HH = format: functional, cell-based, Homo sapiens; details: Homo sapiens, HH
Description: SANGER: Inhibition of human HH cell growth in a cell viability assay.

JAR = format: functional, cell-based, Homo sapiens; details: Homo sapiens, JAR;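 also: growth inhibition of human JAR cells determined with a cell viability assay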
Description: SANGER: Inhibition of human JAR cell growth in a cell viability assay.

K5 = format: functional, cell-based, Homo sapiens; details: Homo sapiens, K5
Description: SANGER: Inhibition of human K5 cell growth in a cell viability assay.

KM-H2 = format: functional, cell-based, Homo sapiens; details: Homo sapiens, KM-H2;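 also: growth inhibition of KM-H2 cells, read out by a cell viability assay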
Description: SANGER: Inhibition of human KM-H2 cell growth in a cell viability assay.

LB1047-RCC = format: functional, cell-based, Homo sapiens; details: Homo sapiens, LB1047-RCC;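 also: inhibition of cell growth, determined with a cell viability assay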
Description: SANGER: Inhibition of human LB1047-RCC cell growth in a cell viability assay.

LB2241-RCC = format: functional, cell-based, Homo sapiens; details: Homo sapiens, LB2241-RCC;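 also: cell viability assay measuring how strongly the cultured human renal carcinoma line is prevented from growing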
Description: SANGER: Inhibition of human LB2241-RCC cell growth in a cell viability assay.

LS-123 = format: functional, cell-based, Homo sapiens; details: Homo sapiens, LS-123
Description: SANGER: Inhibition of human LS-123 cell growth in a cell viability assay.

LS-411N = format: functional, cell-based, Homo sapiens; details: Homo sapiens, LS-411N
MC116 = format: functional, cell-based, Homo sapiens; details: Homo sapiens, MC116;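 also: growth inhibition of MC116 cells, read out with a cell viability assay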
Description: SANGER: Inhibition of human MC116 cell growth in a cell viability assay.

MHH-NB-11 = format: functional, cell-based, Homo sapiens; details: Homo sapiens, MHH-NB-11;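 also: growth inhibition of human MHH-NB-11 cells, read out by a cell viability assay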
Description: SANGER: Inhibition of human MHH-NB-11 cell growth in a cell viability assay.

MHH-PREB-1 = format: functional, cell-based, Homo sapiens; details: Homo sapiens, MHH-PREB-1;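 also: cell viability assay measuring inhibition of proliferation of human MHH-PREB-1 cells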
Description: SANGER: Inhibition of human MHH-PREB-1 cell growth in a cell viability assay.

MLMA = format: functional, cell-based, Homo sapiens; details: Homo sapiens, MLMA;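 also: growth inhibition of MLMA cells (human), determined through a cell viability readout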
Description: SANGER: Inhibition of human MLMA cell growth in a cell viability assay.

NB6 = format: functional, cell-based, Homo sapiens; details: Homo sapiens, NB6;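 also: growth inhibition of NB6 cells, read out by a cell viability assay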
Description: SANGER: Inhibition of human NB6 cell growth in a cell viability assay.

NCI-H1650 = format: functional, cell-based, Homo sapiens; details: Homo sapiens, NCI-H1650;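 also: growth inhibition of human NCI-H1650 cells measured by a cell viability assay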
Description: SANGER: Inhibition of human NCI-H1650 cell growth in a cell viability assay.

NCI-H526 = format: functional, cell-based, Homo sapiens; details: Homo sapiens, NCI-H526;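 also: growth inhibition of the human NCI-H526 cell line, measured by a cell viability assay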
Description: SANGER: Inhibition of human NCI-H526 cell growth in a cell viability assay.

NMC-G1 = format: functional, cell-based, Homo sapiens; details: Homo sapiens, NMC-G1;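 also: growth inhibition of the NMC-G1 cell line, measured with a cell viability read-out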
Description: SANGER: Inhibition of human NMC-G1 cell growth in a cell viability assay.

RS4-11 = format: functional, cell-based, Homo sapiens; details: Homo sapiens, RS4-11;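 also: growth inhibition of RS4-11 cells, read out by a cell viability assay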
Description: SANGER: Inhibition of human RS4-11 cell growth in a cell viability assay.

SCC-15 = format: functional, cell-based, Homo sapiens; details: Homo sapiens, SCC-15;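 also: growth inhibition of SCC-15 cells, read out with a cell viability assay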
Description: SANGER: Inhibition of human SCC-15 cell growth in a cell viability assay.

SF-268 = format: functional, cell-based, Homo sapiens; details: Homo sapiens, SF-268;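 also: growth inhibition of SF-268 cells determined with a cell viability assay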
Description: SANGER: Inhibition of human SF268 cell growth in a cell viability assay.

SJSA-1 = format: functional, cell-based, Homo sapiens; details: Homo sapiens, SJSA-1;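 also: growth inhibition of human SJSA-1 cells, read out through a cell viability measurement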
Description: SANGER: Inhibition of human SJSA-1 cell growth in a cell viability assay.

SW872 = format: functional, cell-based, Homo sapiens; details: Homo sapiens, SW872;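 also: growth inhibition of SW872 cells, read out by a viability assay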
Description: SANGER: Inhibition of human SW872 cell growth in a cell viability assay.

SW982 = format: functional, cell-based; details: Homo sapiens;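 also: growth inhibition of SW982 cells, read out with a cell viability assay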
Description: SANGER: Inhibition of human SW982 cell growth in a cell viability assay.

8-MG-BA = format: functional, cell-based, Homo sapiens; details: Homo sapiens, 8-MG-BA;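 also: growth inhibition of 8-MG-BA cells, read out with a cell viability assay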
Description: SANGER: Inhibition of human 8-MG-BA cell growth in a cell viability assay.

A253 cell line = format: functional, cell-based, Homo sapiens; details: Homo sapiens, A253;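 also: growth inhibition of A253 cells, read out with a cell viability assay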
Description: SANGER: Inhibition of human A253 cell growth in a cell viability assay.

A498 = format: functional, cell-based, Homo sapiens; details: Homo sapiens, A498;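 also: growth inhibition of human A498 cells, read out with a cell viability assay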
Description: SANGER: Inhibition of human A498 cell growth in a cell viability assay.

BB65-RCC = format: functional, cell-based, Homo sapiens; details: Homo sapiens, BB65-RCC;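 also: growth inhibition of the cell line, measured with a cell viability assay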
Description: SANGER: Inhibition of human BB65-RCC cell growth in a cell viability assay.

BE-13 = format: functional, cell-based, Homo sapiens; details: Homo sapiens, BE-13;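 also: growth inhibition of human BE-13 cells, measured with a cell viability assay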
Description: SANGER: Inhibition of human BE-13 cell growth in a cell viability assay.

BT-474 = format: functional, cell-based, Homo sapiens; details: Homo sapiens, BT-474
Description: SANGER: Inhibition of human BT-474 cell growth in a cell viability assay.

C2BBe1 = format: functional, cell-based, Homo sapiens; details: Homo sapiens, C2BBe1;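 also: growth inhibition of C2BBe1 cells, read out through a viability assay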
Description: SANGER: Inhibition of human C2BBe1 cell growth in a cell viability assay.

TE-11 = format: functional, cell-based; details: Homo sapiens;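 also: growth inhibition of human TE-11 cells, read out by a cell viability assay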
Description: SANGER: Inhibition of human TE-11 cell growth in a cell viability assay.

TE-9 = format: functional, cell-based, Homo sapiens; details: Homo sapiens, TE-9;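 also: cell growth inhibition, measured with a cell viability readout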
Description: SANGER: Inhibition of human TE-9 cell growth in a cell viability assay.

TGBC24TKB = format: functional, cell-based; details: Homo sapiens;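 also: growth inhibition of human TGBC24TKB cells, read out with a cell viability assay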
Description: SANGER: Inhibition of human TGBC24TKB cell growth in a cell viability assay.

TGW = format: functional, cell-based, Homo sapiens; details: Homo sapiens, TGW;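 also: growth inhibition of human TGW cells, read out with a cell viability assay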
Description: SANGER: Inhibition of human TGW cell growth in a cell viability assay.

no-10 = format: functional, cell-based, Homo sapiens; details: Homo sapiens;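 also: growth inhibition of no-10 cells, read out with a cell viability assay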
Description: SANGER: Inhibition of human no-10 cell growth in a cell viability assay.

COLO-320-HSR = format: functional, cell-based, Homo sapiens; details: Homo sapiens, COLO-320-HSR;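 also: growth inhibition of COLO-320-HSR cells, determined with a cell viability assay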
Description: SANGER: Inhibition of human COLO-320-HSR cell growth in a cell viability assay.

COLO-684 = format: functional, cell-based, Homo sapiens; details: Homo sapiens, COLO-684
Description: SANGER: Inhibition of human COLO-684 cell growth in a cell viability assay.

SMILES: Cc1ccc(-n2nc(C(C)(C)C)cc2NC(=O)Nc2ccc(OCCN3CCOCC3)c3ccccc23)cc1 [DORAMAPIMOD]
- IC50 (COLO-824): > 10000 nM
- IC50 (CW-2): > 10000 nM
- IC50 (D-247MG): > 10000 nM
- IC50 (DB): > 10000 nM
- IC50 (DEL): > 10000 nM
- IC50 (DMS-114): > 10000 nM
- IC50 (DSH1): > 10000 nM
- IC50 (ES3): > 10000 nM
- IC50 (ES8): > 10000 nM
- IC50 (EOL1): 348 nM
- IC50 (GB-1): > 10000 nM
- IC50 (GCIY): > 10000 nM
- IC50 (GR-ST): > 10000 nM
- IC50 (GT3TKB): > 10000 nM
- IC50 (HAL-01): > 10000 nM
- IC50 (HH): > 10000 nM
- IC50 (JAR): > 10000 nM
- IC50 (K5): > 10000 nM
- IC50 (KM-H2): > 10000 nM
- IC50 (LB1047-RCC): > 10000 nM
- IC50 (LB2241-RCC): > 10000 nM
- IC50 (LS-123): > 10000 nM
- IC50 (LS-411N): > 10000 nM
- IC50 (MC116): > 10000 nM
- IC50 (MHH-NB-11): > 10000 nM
- IC50 (MHH-PREB-1): > 10000 nM
- IC50 (MLMA): > 10000 nM
- IC50 (NB6): > 10000 nM
- IC50 (NCI-H1650): > 10000 nM
- IC50 (NCI-H526): > 10000 nM
- IC50 (NMC-G1): > 10000 nM
- IC50 (RS4-11): > 10000 nM
- IC50 (SCC-15): > 10000 nM
- IC50 (SF-268): > 10000 nM
- IC50 (SJSA-1): > 10000 nM
- IC50 (SW872): > 10000 nM
- IC50 (SW982): > 10000 nM
- IC50 (8-MG-BA): > 10000 nM
- IC50 (A253 cell line): > 10000 nM
- IC50 (A498): > 10000 nM
- IC50 (BB65-RCC): > 10000 nM
- IC50 (BE-13): > 10000 nM
- IC50 (BT-474): > 10000 nM
- IC50 (C2BBe1): > 10000 nM
- IC50 (TE-11): > 10000 nM
- IC50 (TE-9): > 10000 nM
- IC50 (TGBC24TKB): > 10000 nM
- IC50 (TGW): > 10000 nM
- IC50 (no-10): > 10000 nM
- IC50 (COLO-320-HSR): > 10000 nM
- IC50 (COLO-684): > 10000 nM

SMILES: CC1(C)CCC(c2ccc(Cl)cc2)=C(CN2CCN(c3ccc(C(=O)NS(=O)(=O)c4ccc(N[C@H](CCN5CCOCC5)CSc5ccccc5)c(S(=O)(=O)C(F)(F)F)c4)cc3)CC2)C1 [NAVITOCLAX]
- IC50 (COLO-824): 1020 nM
- IC50 (CW-2): > 2000 nM
- IC50 (D-247MG): 1510 nM
- IC50 (DB): 571 nM
- IC50 (DEL): 1750 nM
- IC50 (DMS-114): > 2000 nM
- IC50 (DSH1): > 2000 nM
- IC50 (ES3): > 2000 nM
- IC50 (ES8): > 2000 nM
- IC50 (EOL1): 6.69 nM
- IC50 (GB-1): > 2000 nM
- IC50 (GCIY): > 2000 nM
- IC50 (GR-ST): > 2000 nM
- IC50 (GT3TKB): > 2000 nM
- IC50 (HAL-01): 725 nM
- IC50 (HH): > 2000 nM
- IC50 (JAR): > 2000 nM
- IC50 (K5): > 2000 nM
- IC50 (KM-H2): > 2000 nM
- IC50 (LB1047-RCC): > 2000 nM
- IC50 (LB2241-RCC): > 2000 nM
- IC50 (LS-123): > 2000 nM
- IC50 (LS-411N): > 2000 nM
- IC50 (MC116): > 2000 nM
- IC50 (MHH-NB-11): > 2000 nM
- IC50 (MHH-PREB-1): > 2000 nM
- IC50 (MLMA): 1970 nM
- IC50 (NB6): > 2000 nM
- IC50 (NCI-H1650): > 2000 nM
- IC50 (NCI-H526): > 2000 nM
- IC50 (NMC-G1): 811 nM
- IC50 (RS4-11): 25.9 nM
- IC50 (SCC-15): > 2000 nM
- IC50 (SF-268): > 2000 nM
- IC50 (SJSA-1): > 2000 nM
- IC50 (SW872): > 2000 nM
- IC50 (SW982): > 2000 nM
- IC50 (8-MG-BA): > 2000 nM
- IC50 (A253 cell line): > 2000 nM
- IC50 (A498): > 2000 nM
- IC50 (BB65-RCC): > 2000 nM
- IC50 (BE-13): 365 nM
- IC50 (BT-474): > 2000 nM
- IC50 (C2BBe1): > 2000 nM
- IC50 (TE-11): > 2000 nM
- IC50 (TE-9): > 2000 nM
- IC50 (TGBC24TKB): 458 nM
- IC50 (TGW): 46.3 nM
- IC50 (no-10): > 2000 nM
- IC50 (COLO-320-HSR): > 2000 nM
- IC50 (COLO-684): > 2000 nM
